# Measurements taken from ChEMBL document CHEMBL1201862, “PubChem BioAssay data set” (2004).
# Calls of active or inactive are those of the source.
# Columns and labels:
# [1] = target: 14-3-3 protein gamma (Homo sapiens, UniProt P61981); assay: modulators of 14-3-3 gamma client binding – dose response (AID 711); type: functional
# [2] = HEK293T cytotoxicity, dose response, cytotoxicity control for miR-122 modulator project, cell-based, inhibitor set, cherry-pick, set 2 (AID 720697); type: functional
# [3] = target: 5-hydroxytryptamine receptor 1A (Homo sapiens, UniProt P08908); type: functional
# Chain of 5-hydroxytryptamine receptor 1A (P08908 whole entry): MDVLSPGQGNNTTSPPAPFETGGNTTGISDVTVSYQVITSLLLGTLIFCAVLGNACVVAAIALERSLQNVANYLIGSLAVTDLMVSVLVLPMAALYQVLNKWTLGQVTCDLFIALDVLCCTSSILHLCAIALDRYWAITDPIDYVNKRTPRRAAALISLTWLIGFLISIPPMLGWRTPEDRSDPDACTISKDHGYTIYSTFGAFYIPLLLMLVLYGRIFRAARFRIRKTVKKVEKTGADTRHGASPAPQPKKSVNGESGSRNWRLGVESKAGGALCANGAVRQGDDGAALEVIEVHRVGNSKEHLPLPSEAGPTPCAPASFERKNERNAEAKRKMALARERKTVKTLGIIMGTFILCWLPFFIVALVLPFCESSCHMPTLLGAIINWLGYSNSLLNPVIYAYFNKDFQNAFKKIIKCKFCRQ
# [4] = HEK293T cytotoxicity, dose response, cytotoxicity control for miR-122 modulator project, cell-based, activator set, cherry-pick (AID 720690); type: functional;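 also: HEK293T human cells scored for general mammalian cytotoxicity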
# [5] = target: Peroxisome proliferator-activated receptor gamma/Nuclear receptor coactivator 2 (Homo sapiens, UniProt P37231); assay: TR-FRET dose response biochemical High Throughput Screening assay for agonists of the steroid receptor coactivator 2 (SRC-2) recruitment by the peroxisome proliferator-activated receptor gamma (PPAR gamma): non-selective agonists. [Related pubchem assays: 1297, 1032 ]; type: functional
# [6] = target: Dual specificity protein phosphatase 6 (Rattus norvegicus, UniProt Q64346); assay: MKP-3 phosphatase inhibitors, primary screen, biochemical, rat enzyme, in vitro (AID 425)
# Chain of Dual specificity protein phosphatase 6 (Q64346 whole entry, the tested form may be a part): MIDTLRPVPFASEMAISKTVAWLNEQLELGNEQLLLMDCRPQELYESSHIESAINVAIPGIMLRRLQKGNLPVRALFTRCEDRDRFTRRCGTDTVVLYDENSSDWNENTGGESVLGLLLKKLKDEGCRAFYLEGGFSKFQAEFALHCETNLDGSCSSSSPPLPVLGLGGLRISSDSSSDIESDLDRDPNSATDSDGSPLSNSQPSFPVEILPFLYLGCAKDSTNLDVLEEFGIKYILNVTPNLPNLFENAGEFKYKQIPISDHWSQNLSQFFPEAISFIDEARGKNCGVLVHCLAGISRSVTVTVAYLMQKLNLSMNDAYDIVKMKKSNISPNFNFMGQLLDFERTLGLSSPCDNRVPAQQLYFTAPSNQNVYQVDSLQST
# [7] = target: T1, Carboxy-terminal domain RNA polymerase II polypeptide A small phosphatase 1 (Homo sapiens, UniProt Q9GZU7); assay: inhibitors of CTDSP1, concentration-response testing, biochemical assay, absorbance-based, actives from ultra-high-throughput screening (AID 540297); type: functional
# T1 sequence (Q9GZU7 whole entry): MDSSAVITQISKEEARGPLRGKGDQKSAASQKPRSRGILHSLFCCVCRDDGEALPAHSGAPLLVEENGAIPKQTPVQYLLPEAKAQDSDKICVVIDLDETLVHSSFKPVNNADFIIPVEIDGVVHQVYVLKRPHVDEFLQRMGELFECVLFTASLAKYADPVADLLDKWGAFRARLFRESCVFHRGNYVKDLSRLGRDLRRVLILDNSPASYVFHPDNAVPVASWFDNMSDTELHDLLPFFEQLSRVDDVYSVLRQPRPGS
# [8] = target: Prothrombin (Bos taurus, UniProt P00735); assay: thrombin inhibition, dose response, biochemical, fluorescence polarization, uHTS hits (AID 602369); type: functional
# [9] = target: 72 kDa type IV collagenase (Homo sapiens, UniProt P08253); assay: Dose Response validation of uHTS RPN11 inhibitor hits using a MMP-2 Fluorescence assay.; type: functional
# Chain of 72 kDa type IV collagenase (P08253 whole entry): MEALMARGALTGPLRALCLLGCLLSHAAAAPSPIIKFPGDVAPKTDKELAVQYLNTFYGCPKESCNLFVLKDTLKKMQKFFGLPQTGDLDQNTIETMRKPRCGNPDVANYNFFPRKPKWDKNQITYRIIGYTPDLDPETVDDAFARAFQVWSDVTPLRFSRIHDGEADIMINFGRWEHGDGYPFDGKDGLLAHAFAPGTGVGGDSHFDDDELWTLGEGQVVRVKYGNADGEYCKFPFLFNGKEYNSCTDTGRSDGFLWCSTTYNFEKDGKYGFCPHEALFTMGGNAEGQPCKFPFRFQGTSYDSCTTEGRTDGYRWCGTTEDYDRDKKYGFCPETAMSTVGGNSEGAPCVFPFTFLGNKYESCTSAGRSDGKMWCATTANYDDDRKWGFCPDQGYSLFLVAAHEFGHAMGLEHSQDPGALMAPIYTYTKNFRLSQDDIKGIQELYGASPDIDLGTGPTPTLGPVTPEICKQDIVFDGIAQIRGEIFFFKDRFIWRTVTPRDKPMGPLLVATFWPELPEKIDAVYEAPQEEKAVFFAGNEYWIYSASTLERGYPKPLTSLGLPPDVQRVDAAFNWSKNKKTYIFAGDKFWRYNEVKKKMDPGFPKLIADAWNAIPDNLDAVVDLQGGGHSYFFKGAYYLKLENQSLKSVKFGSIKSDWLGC
# [10] = target: 26S proteasome non-ATPase regulatory subunit 14 (Homo sapiens, UniProt O00487); assay: inhibition of proteasome subunit RPN11 – biochemical, fluorescence polarization, uHTS hits, confirmation (AID 602368); type: functional
# Chain of 26S proteasome non-ATPase regulatory subunit 14 (O00487 whole entry): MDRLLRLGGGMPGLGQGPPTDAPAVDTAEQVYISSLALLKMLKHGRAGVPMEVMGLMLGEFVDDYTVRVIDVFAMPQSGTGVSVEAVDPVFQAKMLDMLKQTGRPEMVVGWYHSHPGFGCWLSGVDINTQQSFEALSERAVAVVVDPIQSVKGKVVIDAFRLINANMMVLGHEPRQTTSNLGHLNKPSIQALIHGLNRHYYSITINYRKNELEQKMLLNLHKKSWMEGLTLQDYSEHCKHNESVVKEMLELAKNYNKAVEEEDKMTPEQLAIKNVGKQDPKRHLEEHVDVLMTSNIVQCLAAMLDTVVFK
# [11] = target: Peroxisome proliferator-activated receptor gamma/Nuclear receptor coactivator 3 (Homo sapiens, UniProt P37231); assay: TR-FRET dose response biochemical High Throughput Screening assay for agonists of the steroid receptor coactivator 3 (SRC-3) recruitment by the peroxisome proliferator-activated receptor gamma (PPAR gamma): non-selective agonists. [Related pubchem assays: 1301 (Confirmation screen.), 1048 (Primary screen.)]; type: functional
# [12] = target: Genome polyprotein (Hepatitis C virus, UniProt Q2Q167); assay: HCV core protein dimerization inhibitors, dose response, biochemical, TR-FRET (AID 2159); design: species or system Hepacivirus hominis;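 also: blocks dimerization of HCV core protein measured by TR-FRET between tagged core106 pairs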
# Chain of Genome polyprotein (Q2Q167 whole entry): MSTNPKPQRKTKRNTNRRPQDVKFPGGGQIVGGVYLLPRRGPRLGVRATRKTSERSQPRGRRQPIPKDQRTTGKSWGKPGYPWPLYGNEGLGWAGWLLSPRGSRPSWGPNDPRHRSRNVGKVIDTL
# [13] = target: Dual specificity protein phosphatase 3 (Homo sapiens, UniProt P51452); assay: VHR phosphatase inhibition, dose response, selectivity assay for STEP inhibitor project, biochemical (AID 602374); type: functional; details: read-out: IC50_Mean
# Chain of Dual specificity protein phosphatase 3 (P51452 whole entry): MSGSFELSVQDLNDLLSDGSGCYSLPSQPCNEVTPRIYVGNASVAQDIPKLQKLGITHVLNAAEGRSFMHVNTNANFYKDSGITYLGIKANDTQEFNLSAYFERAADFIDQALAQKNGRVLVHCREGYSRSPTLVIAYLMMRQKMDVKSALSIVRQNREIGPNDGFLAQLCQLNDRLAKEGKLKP
# [14] = target: T2, Tyrosine-protein phosphatase non-receptor type 22 (Homo sapiens, UniProt Q9Y2R2); assay: PTPN22 phosphatase inhibition, dose response, selectivity assay for STEP inhibitor project, biochemical (AID 624241); type: functional
# T2 sequence (Q9Y2R2 whole entry): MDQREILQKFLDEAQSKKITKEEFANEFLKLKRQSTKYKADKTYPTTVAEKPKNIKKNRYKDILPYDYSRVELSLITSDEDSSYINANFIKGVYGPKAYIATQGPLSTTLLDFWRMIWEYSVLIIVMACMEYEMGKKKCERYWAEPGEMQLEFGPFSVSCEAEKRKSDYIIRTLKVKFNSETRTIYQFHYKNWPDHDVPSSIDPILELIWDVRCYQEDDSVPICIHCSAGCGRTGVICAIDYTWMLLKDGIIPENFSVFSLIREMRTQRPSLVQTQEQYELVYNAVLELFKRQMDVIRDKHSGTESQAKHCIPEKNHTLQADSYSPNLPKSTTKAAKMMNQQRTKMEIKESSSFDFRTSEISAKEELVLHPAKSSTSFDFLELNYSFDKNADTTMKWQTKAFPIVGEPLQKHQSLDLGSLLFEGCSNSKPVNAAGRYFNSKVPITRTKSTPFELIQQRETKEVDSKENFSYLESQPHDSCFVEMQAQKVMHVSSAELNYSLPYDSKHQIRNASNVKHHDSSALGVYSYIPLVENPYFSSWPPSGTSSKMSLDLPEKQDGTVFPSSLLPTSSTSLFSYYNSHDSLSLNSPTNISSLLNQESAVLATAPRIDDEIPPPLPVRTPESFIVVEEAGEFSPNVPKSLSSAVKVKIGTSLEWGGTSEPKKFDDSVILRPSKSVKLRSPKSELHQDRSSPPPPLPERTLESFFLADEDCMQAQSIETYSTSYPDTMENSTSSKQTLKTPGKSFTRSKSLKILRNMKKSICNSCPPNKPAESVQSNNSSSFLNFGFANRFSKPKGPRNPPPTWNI
# [15] = target: Tyrosine-protein phosphatase non-receptor type 11 (Homo sapiens, UniProt Q06124); assay: SHP2 phosphatase inhibition, dose response, selectivity assay for STEP inhibitor project, biochemical (AID 602367); type: functional; details: read-out: IC50_Mean
# Chain of Tyrosine-protein phosphatase non-receptor type 11 (Q06124 whole entry): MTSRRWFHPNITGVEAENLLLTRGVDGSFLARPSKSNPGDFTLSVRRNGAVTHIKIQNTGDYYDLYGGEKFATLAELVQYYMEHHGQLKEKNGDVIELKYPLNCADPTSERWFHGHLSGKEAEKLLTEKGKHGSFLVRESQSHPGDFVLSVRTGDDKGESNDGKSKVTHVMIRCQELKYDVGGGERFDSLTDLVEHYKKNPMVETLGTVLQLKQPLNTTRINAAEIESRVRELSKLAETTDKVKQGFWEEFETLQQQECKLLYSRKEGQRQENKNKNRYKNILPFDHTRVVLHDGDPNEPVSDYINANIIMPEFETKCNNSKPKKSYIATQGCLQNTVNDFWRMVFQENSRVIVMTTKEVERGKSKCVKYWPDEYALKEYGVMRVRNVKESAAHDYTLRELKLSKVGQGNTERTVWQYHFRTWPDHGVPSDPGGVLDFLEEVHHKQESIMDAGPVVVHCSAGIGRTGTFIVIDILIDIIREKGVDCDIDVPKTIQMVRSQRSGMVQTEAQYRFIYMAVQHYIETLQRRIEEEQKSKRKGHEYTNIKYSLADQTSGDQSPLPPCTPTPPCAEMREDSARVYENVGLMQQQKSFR
# [16] = target: Peroxisome proliferator-activated receptor gamma/Nuclear receptor coactivator 1 (Homo sapiens, UniProt P37231); assay: TR-FRET dose response biochemical High Throughput Screening assay for agonists of the steroid receptor coactivator 1 (SRC-1) recruitment by the peroxisome proliferator-activated receptor gamma (PPAR gamma): non-selective agonists. [Related pubchem assays (depositor defined):AID1300, AID1808, AID504735, AID631]; type: protein assay
# [17] = target: Tyrosine-protein phosphatase non-receptor type 5 (Homo sapiens, UniProt P54829); assay: STEP phosphatase inhibitors, confirmation, biochemical, fluorescence intensity, uHTS hits (AID 602372); type: functional; details: read-out: IC50_Mean
# Chain of Tyrosine-protein phosphatase non-receptor type 5 (P54829 whole entry): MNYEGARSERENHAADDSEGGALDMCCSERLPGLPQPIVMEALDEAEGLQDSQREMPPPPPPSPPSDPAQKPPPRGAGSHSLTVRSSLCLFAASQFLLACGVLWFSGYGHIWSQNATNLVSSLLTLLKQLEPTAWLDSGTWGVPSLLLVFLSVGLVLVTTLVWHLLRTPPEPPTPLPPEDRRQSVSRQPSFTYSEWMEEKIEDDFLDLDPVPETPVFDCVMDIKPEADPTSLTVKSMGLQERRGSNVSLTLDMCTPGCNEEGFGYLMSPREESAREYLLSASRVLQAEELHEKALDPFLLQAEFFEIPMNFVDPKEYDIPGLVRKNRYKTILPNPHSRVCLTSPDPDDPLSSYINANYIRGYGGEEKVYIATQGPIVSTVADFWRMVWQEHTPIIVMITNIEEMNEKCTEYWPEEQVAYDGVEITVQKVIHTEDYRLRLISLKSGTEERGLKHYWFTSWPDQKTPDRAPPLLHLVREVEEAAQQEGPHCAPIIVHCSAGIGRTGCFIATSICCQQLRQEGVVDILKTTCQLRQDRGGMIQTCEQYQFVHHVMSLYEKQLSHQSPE
# [18] = cells; type: functional, cell-based; details: HEK-CNG
# [19] = tested on: Jurkat; assay: antigen receptor-induced NF-kB inhibitors, dose response, Jurkat, luciferase reporter, luminescence, B- and T-cell (AID 489004); type: functional, cell-based; details: Homo sapiens;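 also: NF-kB luciferase reporter Jurkat cells stimulated with PMA plus ionomycin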
# [20] = inhibitors of clade B AD8 Env fusion, dose response, cell-based, cherry-pick (AID 652062); type: functional;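 also: luciferase signal from cell-cell fusion driven by HIV-1 clade B AD8 Env; potency is for inhibitors of fusion seen as a drop in luminescence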
# [21] = inhibitors of SNCA 5'UTR-driven reporter translation, confirmation, H4 neuroglioma cells, luminescence (AID 1988); type: functional, cell-based
# [22] = target: T3, Neuropeptide Y receptor type 2 (Homo sapiens, UniProt P49146); assay: NPY-Y2 antagonist potency, selectivity check, dose response, counter-screen for NPY-Y1 antagonist project, cell-based (AID 1278); type: functional
# T3 sequence (P49146 whole entry): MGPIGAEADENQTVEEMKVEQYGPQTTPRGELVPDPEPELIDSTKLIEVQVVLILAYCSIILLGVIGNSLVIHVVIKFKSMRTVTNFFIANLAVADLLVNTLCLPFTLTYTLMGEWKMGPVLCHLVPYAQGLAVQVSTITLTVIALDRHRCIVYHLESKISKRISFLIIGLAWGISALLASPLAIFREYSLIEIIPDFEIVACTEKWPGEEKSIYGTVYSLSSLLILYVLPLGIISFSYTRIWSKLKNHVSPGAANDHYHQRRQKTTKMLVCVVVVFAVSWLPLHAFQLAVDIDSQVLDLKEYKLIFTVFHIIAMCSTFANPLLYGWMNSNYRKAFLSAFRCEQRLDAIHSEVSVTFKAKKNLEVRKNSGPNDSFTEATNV
# [23] = cells
# [24] = inhibitors of firefly luciferase expression or activity, dose response, H4 neuroglioma cells, luminescence (AID 1990); type: functional, cell-based
# [25] = off-target signal loss in HeLa-CEM21 co-culture – HeLa F-luc CTL cells, cherry-picked, counter-screen for HIV-1 Env fusion inhibitor project, dose response (AID 652040); type: functional, cell-based;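 also: potency for signal decrease marking cytotoxic or nonspecific inhibition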
# [26] = CEM21 lymphoblast cell cytotoxicity, dose response, cytotoxicity control for viral fusion inhibitor project, CellTiter-Glo luminescence, cherry-picked (AID 652042); type: functional, cell-based;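 also: potency for signal decrease meaning cytotoxicity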
# [27] = target: Galanin receptor type 3 (Homo sapiens, UniProt O60755); assay: Fluorescence-based cell-based primary high throughput dose response assay to identify antagonists of the Galanin Receptor 3 (GalR3).; type: functional
# Chain of Galanin receptor type 3 (O60755 whole entry): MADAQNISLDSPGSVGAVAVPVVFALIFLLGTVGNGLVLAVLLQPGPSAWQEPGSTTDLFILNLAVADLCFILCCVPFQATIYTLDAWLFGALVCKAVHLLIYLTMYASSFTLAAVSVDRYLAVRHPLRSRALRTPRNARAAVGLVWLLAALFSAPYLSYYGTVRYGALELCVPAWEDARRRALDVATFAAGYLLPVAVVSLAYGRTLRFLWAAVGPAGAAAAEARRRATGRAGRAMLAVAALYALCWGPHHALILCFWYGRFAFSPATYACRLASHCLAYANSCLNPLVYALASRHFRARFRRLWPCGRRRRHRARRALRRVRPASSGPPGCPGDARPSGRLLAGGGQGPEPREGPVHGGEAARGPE
# [28] = cytotoxicity toward NIH3T3 fibroblasts, dose response, counter-screen, cell-based, ATP luminescence, mouse fibroblasts (AID 2010); type: functional;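 also: cells exposed to compound for about 90 hours before reading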
# [29] = inhibitors of intracellular T. cruzi replication, confirmation, NIH3T3 host cells, beta-gal luminescence (AID 2044); type: functional, cell-based;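 also: intracellular parasites grown in NIH/3T3 mouse fibroblasts as host cells; luminescent beta-galactosidase reporter signal from transgenic T. cruzi replicating inside host cells; inhibitors lower the luminescence signal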
# [30] = inhibitors of HIV Env-driven cell fusion, dose response, cherry-pick (AID 652057); type: functional, cell-based
# [31] = Luminescence Cell-Based Dose Response HTS to Identify Inhibitors of 5'UTR Stem-Loop Driven Prion Protein mRNA Translation in H4 Neuroglioblastoma Cells. [Related pubchem assays: 1827 (Project Summary), 1813 (Primary HTS)]; type: functional
# [32] = target: T4, Neuropeptide Y receptor type 1 (Homo sapiens, UniProt P25929); assay: NPY-Y1 receptor antagonist potency, dose response, cell-based (AID 1277); type: functional
# T4 sequence (P25929 whole entry): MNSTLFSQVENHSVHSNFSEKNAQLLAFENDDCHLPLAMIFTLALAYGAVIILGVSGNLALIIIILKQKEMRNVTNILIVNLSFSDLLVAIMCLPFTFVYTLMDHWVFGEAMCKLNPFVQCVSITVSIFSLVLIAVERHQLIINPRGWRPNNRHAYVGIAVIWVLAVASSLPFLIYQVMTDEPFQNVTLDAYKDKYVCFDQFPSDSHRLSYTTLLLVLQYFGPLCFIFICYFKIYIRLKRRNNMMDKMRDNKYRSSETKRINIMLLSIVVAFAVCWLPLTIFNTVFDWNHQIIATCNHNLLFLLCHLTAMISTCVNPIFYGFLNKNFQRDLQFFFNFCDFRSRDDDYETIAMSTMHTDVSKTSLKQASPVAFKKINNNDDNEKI
# [33] = cytotoxicity in HEK-293T NF-kB-Luc cells, dose response, cytotoxicity control for B/T-cell NF-kB inhibitor project, cell-based, uHTS hits (AID 489019); type: functional;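 also: IC50 reflects cytotoxicity as loss of cell viability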
# [34] = ZM109 Env clade C HIV-1 fusion inhibitors, dose response, HeLa effector, CEM target cells, luciferase, cherry-pick (AID 652058); type: functional, cell-based
# [35] = target: T5, COUP transcription factor 2 (Homo sapiens, UniProt P24468); assay: Luminescence-based cell-based high throughput dose response assay to identify inhibitors of COUP-TFII (NR2F2).; type: functional;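 also: HEK293 cells transiently cotransfected with COUP-TFII expression vector and reporter; luciferase reporter luminescence driven by COUP-TFII from the pX2-168 reporter plasmid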
# T5 sequence (P24468 whole entry): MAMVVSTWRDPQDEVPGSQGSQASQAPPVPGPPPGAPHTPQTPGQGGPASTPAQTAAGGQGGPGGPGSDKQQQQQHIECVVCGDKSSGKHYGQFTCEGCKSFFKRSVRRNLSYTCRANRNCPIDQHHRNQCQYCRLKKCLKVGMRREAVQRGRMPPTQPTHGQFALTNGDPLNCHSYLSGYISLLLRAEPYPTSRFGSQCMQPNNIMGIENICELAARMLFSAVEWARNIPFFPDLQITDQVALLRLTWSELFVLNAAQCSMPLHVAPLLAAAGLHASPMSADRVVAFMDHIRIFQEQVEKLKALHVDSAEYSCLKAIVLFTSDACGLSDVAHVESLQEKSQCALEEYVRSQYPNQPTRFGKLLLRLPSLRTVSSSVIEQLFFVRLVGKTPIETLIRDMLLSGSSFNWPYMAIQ
# [36] = tested on: INS1; assay: beta cell apoptosis inhibitors, cytokine rescue, dose response, luminescence, retest (AID 449756); type: functional, cell-based; details: Rattus norvegicus;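 also: cell death triggered by IL-1 beta plus TNF-alpha plus IFN-gamma mixture; protective hits raise ATP signal compared with cytokine alone wells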
# Chain of 14-3-3 protein gamma (P61981 whole entry): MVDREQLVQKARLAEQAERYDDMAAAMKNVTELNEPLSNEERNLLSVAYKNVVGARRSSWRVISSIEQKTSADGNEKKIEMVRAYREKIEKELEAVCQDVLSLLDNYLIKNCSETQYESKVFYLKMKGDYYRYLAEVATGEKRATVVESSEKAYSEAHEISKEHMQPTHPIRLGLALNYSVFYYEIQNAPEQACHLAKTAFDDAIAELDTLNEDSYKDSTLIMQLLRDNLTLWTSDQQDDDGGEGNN
structure (smiles),measurement,setting,value
CN1C(=S)SC(N(O)C(=O)Nc2ccccc2)C1(C)C (stereo unspecified),IC50,[1],> 50 µM (not active)
CCOC(=O)C1CCN(C(c2cccnc2)c2c(NC(=O)c3ccco3)sc(C)c2C)CC1 (stereo unspecified),AC50,[2],1.05 µM (active)
same,EC50,[3],> 50 µM (not active)
same,AC50,[4],29.4 µM (active)
Cc1cccc(Nc2nn3c(=O)c4ccccc4nc3s2)c1,EC50,[5],21.7 µM (not active)
same,IC50,[6],> 10 µM (not active)
same,IC50,[7],3.16 µM (active)
same,IC50,[8],> 100 µM (inactive)
same,IC50,[9],5.79 µM (active)
same,IC50,[10],17.6 µM (active)
same,EC50,[11],> 79.4 µM (not active)
same,IC50,[12],> 49.8 µM (not active)
same,IC50,[13],1.21 µM (active)
same,IC50,[14],96.2 µM (inactive)
same,IC50,[15],1.71 µM (active)
same,EC50,[16],32.2 µM (inactive)
same,IC50,[17],4.17 µM (active)
CCCCCCn1c2c(c(=N)c3c1CCC3)CCC2,EC50,[18],> 29.9 µM (inactive)
same,IC50,[19],7.15 µM (active)
same,AC50,[20],3.19 µM (active)
same,EC50,[21],6.52 µM (active)
same,IC50,[22],14.6 µM (not active)
same,EC50,[23],0.007 µM (active)
same,EC50,[24],8.02 µM (active)
same,AC50,[25],> 70 µM (inactive)
same,AC50,[26],3.33 µM (active)
same,IC50,[27],8.41 µM (active)
same,EC50,[28],> 60 µM (not active)
same,EC50,[29],< 0.1 µM (active)
same,AC50,[30],6.91 µM (active)
same,EC50,[31],14.3 µM (active)
same,IC50,[32],8.75 µM (active)
same,IC50,[33],> 80 µM (inactive)
same,AC50,[34],0.949 µM (active)
same,IC50,[35],3.52 µM (active)
same,AC50,[36],2.04 µM (active)
